# In patent US8658383B2, “Sweet taste receptor-expressing construct, cell body expressing the same, and utilization thereof” (T. Hasegawa Co., Ltd., priority 2009, dated 2014):
# Residues, ends and D or L forms follow the SMILES beside them.
# Biological target: T1, human sweet taste receptor (hT1R2+hT1R3) (Homo sapiens, UniProt Q7RTX0+Q8TE23)
# T1 sequence (Q8TE23 20-839): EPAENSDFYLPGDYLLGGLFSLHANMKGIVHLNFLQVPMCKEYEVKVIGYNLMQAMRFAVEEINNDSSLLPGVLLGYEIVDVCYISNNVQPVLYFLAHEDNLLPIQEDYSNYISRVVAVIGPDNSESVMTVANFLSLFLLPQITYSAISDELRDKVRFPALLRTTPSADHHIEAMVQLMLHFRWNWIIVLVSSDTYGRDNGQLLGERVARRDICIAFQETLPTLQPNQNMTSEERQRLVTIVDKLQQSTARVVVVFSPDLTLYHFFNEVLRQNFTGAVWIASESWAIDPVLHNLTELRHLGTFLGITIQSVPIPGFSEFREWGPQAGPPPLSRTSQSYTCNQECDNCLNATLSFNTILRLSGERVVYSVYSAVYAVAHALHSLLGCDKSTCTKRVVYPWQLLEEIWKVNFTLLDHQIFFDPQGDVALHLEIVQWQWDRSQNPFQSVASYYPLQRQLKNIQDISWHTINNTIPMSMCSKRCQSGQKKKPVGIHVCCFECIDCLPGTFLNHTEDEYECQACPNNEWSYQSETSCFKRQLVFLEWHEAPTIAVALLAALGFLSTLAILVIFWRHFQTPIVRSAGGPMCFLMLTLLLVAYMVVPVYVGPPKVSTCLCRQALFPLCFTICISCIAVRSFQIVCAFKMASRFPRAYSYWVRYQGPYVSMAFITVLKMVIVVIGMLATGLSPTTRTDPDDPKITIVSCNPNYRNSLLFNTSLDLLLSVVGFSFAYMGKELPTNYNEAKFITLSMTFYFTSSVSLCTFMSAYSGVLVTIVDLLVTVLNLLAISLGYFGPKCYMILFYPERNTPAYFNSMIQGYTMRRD
# T1 sequence (Q7RTX0 21-852): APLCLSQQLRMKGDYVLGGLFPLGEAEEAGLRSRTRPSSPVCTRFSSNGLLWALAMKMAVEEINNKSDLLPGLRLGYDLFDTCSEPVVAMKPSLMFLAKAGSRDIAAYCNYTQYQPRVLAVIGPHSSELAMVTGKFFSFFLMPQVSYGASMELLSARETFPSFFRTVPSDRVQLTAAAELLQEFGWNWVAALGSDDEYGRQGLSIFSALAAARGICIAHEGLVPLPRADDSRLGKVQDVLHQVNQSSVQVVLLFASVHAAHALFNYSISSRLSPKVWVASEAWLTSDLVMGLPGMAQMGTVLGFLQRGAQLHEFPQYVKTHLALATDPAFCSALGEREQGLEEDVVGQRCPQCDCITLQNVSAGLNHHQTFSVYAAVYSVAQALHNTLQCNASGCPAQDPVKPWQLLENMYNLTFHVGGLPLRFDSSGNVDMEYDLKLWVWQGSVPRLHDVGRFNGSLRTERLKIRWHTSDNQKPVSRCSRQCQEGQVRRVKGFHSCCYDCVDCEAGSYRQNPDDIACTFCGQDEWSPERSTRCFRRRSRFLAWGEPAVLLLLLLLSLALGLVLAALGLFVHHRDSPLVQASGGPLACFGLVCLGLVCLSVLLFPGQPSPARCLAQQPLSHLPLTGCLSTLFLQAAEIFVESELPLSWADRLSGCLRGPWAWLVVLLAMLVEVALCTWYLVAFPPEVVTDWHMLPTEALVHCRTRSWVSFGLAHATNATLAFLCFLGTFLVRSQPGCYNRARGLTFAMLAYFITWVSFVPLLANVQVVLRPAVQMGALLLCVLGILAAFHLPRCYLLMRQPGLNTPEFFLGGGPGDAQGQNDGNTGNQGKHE
# Experiment: Automated fluorescent calcium imaging (Fluo-4 AM, FlexStation 3) of cultured cell strain (A)
# Type: cell-based
# Set-up: The sweet taste receptor subunits T1R2 and T1R3 include an entire part of each subunit
# Details: Average ± S.E., n = 2
# Procedure: Automated fluorescent imaging using FlexStation 3 (Molecular Devices) can be performed, for example, according to the following procedure.
# First, cells are suspended in a low glucose ([…]) DMEM medium from which hygromycin B has been removed, and each 70 to 80 thousands of cells are seeded on each well of a 96-well plate (Corning, CellBIND Surface).
# Then, after cultured at 37° C. for 24 hours, a medium is removed and replaced with a suitable amount of a HEPES (2-[4-(2-hydroxyethyl)-1-piperazinyl]ethanesulfonic acid) buffer, and a HEPES buffer containing a fluorescent calcium indicator (Fluo-4 AM attached to Molecular Devices, FLIPR Ca 4 Assay Kit) is further added. In order to facilitate transfer into cells, a fat-soluble acetoxymethyl group has been introduced into the fluorescent indicator Fluo-4 (excitation wavelength: 495 nm, fluorescent wavelength: 518 nm), and when it is added to a medium, it is easily taken into cells, and is hydrolyzed with an esterase in cells. Hydrolyzed Fluo-4 becomes difficult to be permeated through a cell membrane, and is diffused into cells to form a complex with calcium, emitting intense fluorescence. In a 96-well plate for fluorescent observation, there are a plastic bottom and a film bottom. Since a plate of the plastic bottom is satisfactory in adherability and growth of cells, it is used at a simultaneous assay using a multiplate reader for observing an entire well. However, since a plate of this plastic bottom is bad in transmission property of a UV wavelength, and inhibits transmission of excited light of Fura-2, Fluo-4 is used.
# Then, after incubated at 27 to 37° C. for 30 to 60 minutes, by adding thereto a sweet taste substance at a particular concentration or a solution of a sweet taste substance and a substance to be tested, taste stimulation is performed at 27 to 37° C.
# A physiological response of the cultured cell strain (A) to sucrose stimulation was analyzed by automated fluorescent imaging.
# The cultured cell strain (A) prepared in Example 4 was trypsinized, and suspended in the DMEM medium, a cell density was measured, and each about 80 thousand cells were seeded on each well of a 96-well plate (Corning, CellBIND Surface).
# After cultured at 37° C. for 24 hours, the medium was removed and replaced with 50 μl of a HEPES buffer, and 50 μl of a HEPES buffer containing a fluorescent calcium indicator (Fluo-4 AM attached to Molecular Devices, FLIPR Ca 4 Assay Kit) was further added. Then, this was incubated at 27° C. for 45 minutes to prepare cells to be subjected to automated fluorescent imaging.
# Then, to the cells was added a HEPES buffer containing sucrose, so that a final concentration of sucrose became a concentration described in Table 1, and sucrose stimulation was performed at 27° C.
# The vertical axis of FIG. 15 is a maximum of change (AF) in a fluorescent intensity between immediately after stimulation and 100 seconds after stimulation, that is, a response intensity of cells, and the horizontal axis indicates a sucrose concentration (mM) expressed by logarithm.
# A physiological response of the cultured cell strain (A) to D-phenylalanine stimulation was analyzed by automated fluorescent imaging.
smiles,measurement,setting,value
COC(=O)[C@H](Cc1ccccc1)NC(=O)[C@@H](N)CC(=O)O [aspartame] (H-Asp-Phe-OMe),Change amount of fluorescent intensity (ΔF),aspartame 0.04 mM,3.0 ± 0.1
same,Change amount of fluorescent intensity (ΔF),aspartame 0.16 mM,4.4 ± 1.1
same,Change amount of fluorescent intensity (ΔF),aspartame 0.31 mM,5.2 ± 0.4
same,Change amount of fluorescent intensity (ΔF),aspartame 0.63 mM,12.3 ± 1.7
same,Change amount of fluorescent intensity (ΔF),aspartame 1.25 mM,27.9 ± 1.9
same,Change amount of fluorescent intensity (ΔF),aspartame 2.50 mM,31.2 ± 0.7
